Data taken from US20230077199A1, “PALMITOYL TETRAPEPTIDE-20 CONJUGATED NANOSILVER PARTICLE AND USE THEREOF” (priority 2021, published 2023).

Test system: B16F10 cells
Assay: Measurement of melanin production
Assay type: cell-based, murine
Settings: B16F10, 200 nM, single treatment
Protocol: B16F10 are seeded in 24-well plates at the density of 8×10^4 cells/well and incubated for 24 hours at 37° C. with 5% CO2 atmosphere. After removing the used cell medium, the cells are treated with fresh cell culture medium (control group), 200 nM α-MSH (α-MSH group), combination of 200 nM α-MSH and various concentrations of palmitoyl tetrapeptide-20 conjugated nanosilver particle (α-MSH+sample group), and various concentrations of palmitoyl tetrapeptide-20 conjugated nanosilver particle (sample group), for 24 hours. After treatment, the treated solution in the well is removed with further incubation with fresh cell culture medium for 24 hours.
The cells are washed twice with PBS. The cells are transferred into a 1.5 mL microtube and centrifuged at 10,000 rpm for 5 minutes to obtain cell pellets. Add 100 μL of solution (1 N NaOH containing 10% DMSO) to the pellet for 60 minutes at 80° C. to dissolve intracellular melanin. Extract 80 μL of dissolved melanin and place in 96-well plates, and melanin contents of control group and treatment group are determined by measuring the absorbance at 405 nm. The assay is repeated for three independent experiments. The equation for calculating melanin content is described as following: Total melanin content (%)=(A405 nm treatment group/A405 nm control group)×100%.

With “α-melanocyte stimulating hormone [α-MSH]” the “induction of melanin synthesis” value was “effectively induce melanin synthesis”.
